According to ChEMBL document CHEMBL1201862, “PubChem BioAssay data set” (2004):
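Grown in 96-well plates, cells were treated for 48 hours with each compound at five concentrations. Insufficient inhibition: endpoint recorded as highest concentration tested. Abbreviation: GI50, concentration required for 50% inhibition of growth.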 The source made the active and inactive calls. No stated cut-off is given here; in the data, active = GI50 up to about 1.1 µM and inactive = higher.

Tests used:
Assay in all cases: NCI-60 cell line screen, 48 h
A498 = test system: A498
A549 = test system: A549
BT-549 = test system: BT-549
CCRF-CEM = test system: CCRF-CEM
EKVX = test system: EKVX
HT-29 = test system: HT-29
IGROV-1 = test system: IGROV-1
KM12 = test system: KM12
LOX IMVI = test system: LOX IMVI
LXFL 529 = test system: LXFL 529
MCF7 = test system: MCF7
MDA-MB-435 = test system: MDA-MB-435
MDA-N = test system: MDA-N
NCI-H23 = test system: NCI-H23
OVCAR-8 = test system: OVCAR-8
SK-MEL-2 = test system: SK-MEL-2
U-251 = test system: U-251
UACC-257 = test system: UACC-257
UACC-62 = test system: UACC-62
UO-31 = test system: UO-31

Measured: GI50

O=C(CC1(O)C(=O)Nc2c(Cl)cc(Cl)cc21)c1cccc([N+](=O)[O-])c1 (stereo not given)
inactive: A498 27.9 µM | A549 39.5 µM | BT-549 61 µM | CCRF-CEM 17.4 µM | EKVX 52.5 µM | HT-29 28.9 µM | IGROV-1 18.2 µM | KM12 24.5 µM | LOX IMVI 17 µM | LXFL 529 15.1 µM | MCF7 11.9 µM | MDA-MB-435 5.12 µM | MDA-N 18.9 µM | NCI-H23 19.4 µM | OVCAR-8 29.9 µM | SK-MEL-2 34.3 µM | U-251 27.7 µM | UACC-257 16 µM | UACC-62 18.8 µM | UO-31 38.6 µM
